Source: US20230263822A1, “MODULATION OF FACTOR 11 EXPRESSION” (Ionis Pharmaceuticals, Inc., priority 2008, published 2023)
Where two headings read alike, the source gives them in different places. Strand notation (5' to 3'): a small letter for the sugar, then the base; units joined by * are phosphorothioate-linked, units joined directly phosphodiester-linked; [ ] holds rarer units or linkages, { } end groups; capitals alone tell only the bases. e = 2'-O-(2-methoxyethyl) (MOE); [5mC] = 5-methylcytosine; d = 2'-deoxy (DNA)

Experiments:
human Factor 11 mRNA = test: Dose-dependent inhibition of human Factor 11 in HepG2 cells, electroporation 375-12,000 nM (Example 32); type: cell-based; details: for Percent inhibition of Factor 11 mRNA at 375 nM / Percent inhibition of Factor 11 mRNA at 750 nM / IC50: electroporation; for Percent inhibition of Factor 11 mRNA at 375 nM / Percent inhibition of Factor 11 mRNA at 750 nM / Percent inhibition of Factor 11 mRNA at 1,500 nM / Percent inhibition of Factor 11 mRNA at 3,000 nM / Percent inhibition of Factor 11 mRNA at 6,000 nM / Percent inhibition of Factor 11 mRNA at 12,000 nM: approx. 16 hours, relative to untreated control cells; for Percent inhibition of Factor 11 mRNA at 1,500 nM: electroporation, 1,500 nM; for Percent inhibition of Factor 11 mRNA at 3,000 nM: electroporation, 3,000 nM; for Percent inhibition of Factor 11 mRNA at 6,000 nM: electroporation, 6,000 nM; for Percent inhibition of Factor 11 mRNA at 12,000 nM: electroporation, 12,000 nM; for IC50: Factor 11 mRNA expression
Description: These gapmers were tested at various doses in HepG2 cells. Cells were plated at a density of 20,000 cells per well and transfected using electroporation with 375 nM, 750 nM, 1,500 nM, 3,000 nM, 6,000 nM and 12,000 nM concentrations of antisense oligonucleotide, as specified in Table 47. After a treatment period of approximately 16 hours, RNA was isolated from the cells and Factor 11 mRNA levels were measured by quantitative real-time PCR. Human Factor 11 primer probe set RTS 2966 was used to measure mRNA levels. Factor 11 mRNA levels were adjusted according to total RNA content, as measured by RIBOGREEN. Results are presented as percent inhibition of Factor 11, relative to untreated control cells.
ISIS 416850, ISIS 416858, ISIS 445522, and ISIS 445531 (see Table 45 above) were re-tested in vitro along with the microwalk gapmers under the same conditions described above.
The first two listed gapmers in Table 47 are the original gapmers (ISIS 416850 and ISIS 416858) from which the remaining gapmers were designed via microwalk and are designated by an asterisk.

Factor 11 mRNA = Factor 11 mRNA in cynomolgus monkey liver, day 55 (Example 46); type: in vivo, cynomolgus monkeys; details: 25 mg/kg subcutaneously, primer probe set LTS00301
Description: (§1) Groups, each consisting of two male and two female monkeys, were injected subcutaneously with 25 mg/kg of ISIS 416850, ISIS 449709, ISIS 445522, ISIS 449710, ISIS 449707, ISIS 449711, ISIS 449708, 416858, and ISIS 445531. Antisense oligonucleotide was administered to the monkeys at 25 mg/kg three times per week for week 1 and 25 mg/kg twice per week for weeks 2 to 8. A control group, consisting of two male and two female monkeys was injected subcutaneously with PBS according to the same dosing regimen. Body weights were taken 14 days and 7 days before the start of treatment and were then measured weekly throughout the treatment period. Blood samples were collected 14 days and 5 days before the start of treatment and subsequently several times during the dosing regimen for PT and aPTT measurements, and measurement of various hematologic factors. On day 55, the monkeys were euthanized by exsanguination while under deep anesthesia, and organs harvested for further analysis.
On day 55, RNA was extracted from liver tissue for real-time PCR analysis of Factor 11 using primer probe set LTS00301. Results are presented as percent inhibition of Factor 11, relative to PBS control.

Factor 11 protein = Factor 11 protein in monkey plasma by sandwich ELISA (Example 46); type: in vivo, cynomolgus monkeys; details: 25 mg/kg subcutaneously
Description: as §1
Plasma samples from all monkey groups taken on different days were analyzed by a sandwich-style ELISA assay (Affinity Biologicals Inc.) using an affinity-purified polyclonal anti-Factor 11 antibody as the capture antibody and a peroxidase-conjugated polyclonal anti-Factor 11 antibody as the detecting antibody. Monkey plasma was diluted 1:50 for the assay. Peroxidase activity was expressed by incubation with the substrate o-phenylenediamine. The color produced was quantified using a microplate reader at 490 nm and was considered to be proportional to the concentration of Factor 11 in the samples.
The results are presented in Table 147, expressed as percentage reduction relative to that of the PBS control.

[1] = Viscosity of ISIS antisense oligonucleotides, micro-viscometer at 25 °C (Example 47); type: physicochemical; details: for Concentration: concentration of the viscosity sample, UV reading at 260 nM at 85° C.; for Viscosity: in water, micro-viscometer at 25° C., at the concentration of the same line
Description: The viscosity of antisense oligonucleotides targeting human Factor 11 was measured with the aim of screening out antisense oligonucleotides which have a viscosity more than 40 cP at a concentration of 165-185 mg/mL.
ISIS oligonucleotides (32-35 mg) were weighed into a glass vial, 120 μL of water was added and the antisense oligonucleotide was dissolved into solution by heating the vial at 50° C. Part of (75 μL) the pre-heated sample was pipetted to a micro-viscometer (Cambridge). The temperature of the micro-viscometter was set to 25° C. and the viscosity of the sample was measured. Another part (20 μL) of the pre-heated sample was pipetted into 10 mL of water for UV reading at 260 nM at 85° C. (Cary UV instrument).

[2] = mouse, in vivo, sc, 50 mg/kg
[3] = mouse, in vivo, sc, 50 mg/kg; remark: listed apart in the source
[4] = mouse, in vivo, sc, 50 mg/kg; remark: listed apart in the source
[5] = rat, in vivo, sc, 50 mg/kg
[6] = rat, in vivo, sc, 50 mg/kg; remark: listed apart in the source
[7] = rat, in vivo, sc, 50 mg/kg; remark: listed apart in the source

449709 (antisense eG*e[5mC]*eA*e[5mC]*dA*dG*dT*dT*dT*d[5mC]*dT*dG*dG*d[5mC]*eA*eG*eG*e[5mC]) [compound 449709]
Percent inhibition of Factor 11 mRNA at 375 nM (human Factor 11 mRNA): 52%
Percent inhibition of Factor 11 mRNA at 750 nM (human Factor 11 mRNA): 71%
Percent inhibition of Factor 11 mRNA at 1,500 nM (human Factor 11 mRNA): 80%
Percent inhibition of Factor 11 mRNA at 3,000 nM (human Factor 11 mRNA): 87%
Percent inhibition of Factor 11 mRNA at 6,000 nM (human Factor 11 mRNA): 92%
Percent inhibition of Factor 11 mRNA at 12,000 nM (human Factor 11 mRNA): 95%
IC50 (human Factor 11 mRNA): 380 nM
% inhibition of Factor 11 mRNA in liver relative to the PBS control (Factor 11 mRNA): 69%
Inhibition of Factor 11 protein relative to the PBS control (percentage reduction) (Factor 11 protein; Day 10, plasma): 27%
Inhibition of Factor 11 protein relative to the PBS control (percentage reduction) (Factor 11 protein; Day 17, plasma): 35%
Inhibition of Factor 11 protein relative to the PBS control (percentage reduction) (Factor 11 protein; Day 24, plasma): 44%
Inhibition of Factor 11 protein relative to the PBS control (percentage reduction) (Factor 11 protein; Day 31, plasma): 45%
Inhibition of Factor 11 protein relative to the PBS control (percentage reduction) (Factor 11 protein; Day 38, plasma): 46%
Inhibition of Factor 11 protein relative to the PBS control (percentage reduction) (Factor 11 protein; Day 45, plasma): 48%
Inhibition of Factor 11 protein relative to the PBS control (percentage reduction) (Factor 11 protein; Day 52, plasma): 47%
Inhibition of Factor 11 protein relative to the PBS control (percentage reduction) (Factor 11 protein; Day 55, plasma): 50%
Inhibition of Factor 11 protein relative to the PBS control (percentage reduction) (Factor 11 protein; Day −5, plasma): 0%
Inhibition of Factor 11 protein relative to the PBS control (percentage reduction) (Factor 11 protein; Day −14, plasma): 1%
Concentration [1]: 171 mg/mL
Viscosity [1]: 65 cP

449710 (antisense e[5mC]*eA*e[5mC]*dA*dG*dT*dT*dT*d[5mC]*dT*dG*dG*d[5mC]*eA*eG*eG) [compound 449710]
Percent inhibition of Factor 11 mRNA at 375 nM (human Factor 11 mRNA): 2%
Percent inhibition of Factor 11 mRNA at 750 nM (human Factor 11 mRNA): 21%
Percent inhibition of Factor 11 mRNA at 1,500 nM (human Factor 11 mRNA): 52%
Percent inhibition of Factor 11 mRNA at 3,000 nM (human Factor 11 mRNA): 70%
Percent inhibition of Factor 11 mRNA at 6,000 nM (human Factor 11 mRNA): 82%
Percent inhibition of Factor 11 mRNA at 12,000 nM (human Factor 11 mRNA): 87%
IC50 (human Factor 11 mRNA): 1590 nM
% inhibition of Factor 11 mRNA in liver relative to the PBS control (Factor 11 mRNA): 52%
Inhibition of Factor 11 protein relative to the PBS control (percentage reduction) (Factor 11 protein; Day 10, plasma): 10%
Inhibition of Factor 11 protein relative to the PBS control (percentage reduction) (Factor 11 protein; Day 17, plasma): 14%
Inhibition of Factor 11 protein relative to the PBS control (percentage reduction) (Factor 11 protein; Day 24, plasma): 17%
Inhibition of Factor 11 protein relative to the PBS control (percentage reduction) (Factor 11 protein; Day 31, plasma): 25%
Inhibition of Factor 11 protein relative to the PBS control (percentage reduction) (Factor 11 protein; Day 38, plasma): 20%
Inhibition of Factor 11 protein relative to the PBS control (percentage reduction) (Factor 11 protein; Day 45, plasma): 23%
Inhibition of Factor 11 protein relative to the PBS control (percentage reduction) (Factor 11 protein; Day 52, plasma): 4%
Inhibition of Factor 11 protein relative to the PBS control (percentage reduction) (Factor 11 protein; Day 55, plasma): 24%
Inhibition of Factor 11 protein relative to the PBS control (percentage reduction) (Factor 11 protein; Day −5, plasma): 0%
Inhibition of Factor 11 protein relative to the PBS control (percentage reduction) (Factor 11 protein; Day −14, plasma): 1%
Concentration [1]: 186 mg/mL
Viscosity [1]: 7 cP

ISIS 416867: MOE gapmer, nucleobases 1275 to 1318 of SEQ ID NO: 1 (Table 8) (antisense ACTGGCAGCGGACGGCATTG; MOE gapmer, wing and gap sizes not given here)
ALT [2]: 45 IU/L
AST [2]: 82 IU/L
Bilirubin [2]: 0.21 mg/dL
Cholesterol [2]: 144 mg/dL
BUN [3]: 20 mg/dL
HCT [4]: 47%
Lymphocyte [4]: 6078 cells/μL
Neutrophil [4]: 1404 cells/μL
Platelets [4]: 1006 10^3/μL
RBC [4]: 10 10^6/μL
WBC [4]: 8 10^3/μL
hemoglobin [4]: 14 g/dL
monocytes [4]: 188 cells/μL
ALT [5]: 47 IU/L
AST [5]: 126 IU/L
Albumin [5]: 4
Bilirubin [5]: 0.17 mg/dL
BUN [6]: 22 mg/dL
Creatinine [6]: 70 mg/dL
Total urine protein [6]: 217 mg/dL
Urine protein/creatinine ratio [6]: 3.1
HCT [7]: 45%
Lymphocyte [7]: 10405
Neutrophil [7]: 3044
Platelets [7]: 705
RBC [7]: 7.8 10^6/μL
WBC [7]: 14 10^3/μL
hemoglobin [7]: 14.0 g/dL
